Counter-ions that a name gives are not always drawn.
How the values were obtained:
Assay type in all cases: biochemical
[1] = target: T1, neuraminidase; experiment: neuraminidase assay (Myers et al.); conditions: inhibitor in […] ethanol
T1 construct: gene nanI; method of Myers et al
Text: neuraminidase assay (Myers et al.) on neuraminidase

[2] = tested on: T2, adenosine deaminase (ADA); experiment: ADA assay (Blum and Schwedt); conditions: inhibitor in […] ethanol; unreliable (extrapolated beyond highest tested […])
T2 construct: method of Blum and Schwedt
Text: ADA assay (Blum and Schwedt) on adenosine deaminase (ADA)

[3] = target: T3, lipase; experiment: p-nitrophenyl caprate hydrolysis; conditions: substrate p-nitrophenyl caprate; inhibitor in […] ethanol
T3 construct: gene PNLIP; p-nitrophenyl caprate assay
Text: p-nitrophenyl caprate hydrolysis on lipase

## O=c1c(O)c(-c2ccc(O)c(O)c2)oc2cc(O)cc(O)c12 [Quercetin dihydrate]
[1]
  Neuraminidase / IC50 (mg/mL) *: 0.00035 ± 0.00005 mg/mL

## CCCCCC[C@H]([C@H](C)O)n1cnc2c(N)ncnc21 [EHNA.HCl]
[2]
  Adenosine Deaminase / IC50 (mg/mL) *: 0.61 ± 0.05 mg/mL

## CCCCCCCCCCC[C@@H](C[C@@H]1OC(=O)[C@H]1CCCCCC)OC(=O)[C@H](CC(C)C)NC=O [Orlistat]
[3]
  Lipase / IC50 (mg/mL) *: 0.00245 ± 0.00010 mg/mL

— PMC11673488, “Enzyme Inhibitory, Physicochemical, and Phytochemical Properties and Botanical Sources of Honey, Bee Pollen, Bee Bread, and Propolis Obtained from the Same Apiary” (Antioxidants, 2024)
